# Test results reported in patent publication US20210380946A1 (priority 2018, published 2021).
# Experiment: Clinical trial: neutropenia, thrombocytopenia and toxicity post-melphalan reduced-intensity conditioning
# Conditions: for Days ANC >500 (Absolute Neutrophil Count) / Days Platelets <50: 140 mg/m^2 melphalan single dose
smiles,measurement,setting,value
"N[C@@H](Cc1ccc(N(CCCl)CCCl)cc1)C(=O)O [Melphalan, melphalan]",Days ANC >500 (Absolute Neutrophil Count),Subject 1,9 days
same,Days Platelets <50,Subject 1,13 days
same,Days ANC >500 (Absolute Neutrophil Count),Subject 2,7 days
same,Days Platelets <50,Subject 2,8 days
same,chemotherapy related toxicity: cytopenia,both subjects,temporary cytopenia
same,chemotherapy related toxicity: transaminases,both subjects,temporary mild evelvations in transaminases
same,chemotherapy related toxicity: mucositis,"both subjects, follow-up 1 year and 6 months",2-3 grade
